Experimental data as given in paper PMC8422859, “A Novel Oral Arginase 1/2 Inhibitor Enhances the Antitumor Effect of PD-1 Inhibition in Murine Experimental Gliomas by Altering the Immunosuppressive Environment” (Frontiers in Oncology, 2021).

Columns and labels:
[1] = biological target: T1, recombinant human ARG1 (Homo sapiens, UniProt P05089); test: Recombinant arginase activity assay, hARG1; format: biochemical; conditions: 1 h at 37°C, pH 7.4, 10 mM L-arginine, urea detection; read-out: Inhibition of recombinant hARG1: IC50
T1 construct: made in house; host or cells: E. coli
T1 sequence (P05089 1-322): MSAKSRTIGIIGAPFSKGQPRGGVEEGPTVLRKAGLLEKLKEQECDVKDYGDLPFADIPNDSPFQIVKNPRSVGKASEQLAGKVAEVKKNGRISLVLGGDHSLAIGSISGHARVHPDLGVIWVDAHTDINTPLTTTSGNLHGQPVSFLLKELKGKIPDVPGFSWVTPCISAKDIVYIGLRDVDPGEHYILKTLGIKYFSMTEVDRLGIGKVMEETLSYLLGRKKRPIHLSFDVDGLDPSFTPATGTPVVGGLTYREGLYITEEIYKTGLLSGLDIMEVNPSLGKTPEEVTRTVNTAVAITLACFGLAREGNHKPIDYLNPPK
Protocol: The inhibitory activity towards hARG1 and hARG2 enzymes was assessed using recombinant enzymes biosynthesized using a prokaryotic expression system (E. coli) and purified by fast protein liquid chromatography (FPLC). Briefly, recombinant enzymes were incubated with the tested compounds for 1 h at 37°C in the reaction buffer (100 mM sodium phosphate buffer, 130 mM NaCl, 1 mg/mL BSA, pH 7.4) containing substrate (10 mM L-arginine hydrochloride) and cofactor (200 µM MnCl2). The assay is based on the detection of urea, which is generated during the conversion of L-arginine into L-ornithine catalyzed by arginases. To visualize the product, we adding a mixture of reagent A (4 mM oPA, 50 mM boric acid, 1 M sulfuric acid, 0.03% Brij-35) and reagent B (4 mM NED, 50 mM boric acid, 1 M sulfuric acid, 0.03% Brij-35) in equal proportions. The absorbance was measured at 515 nm. The urea production in the absence of any tested compound was considered as maximal enzyme activity. The absorbance in the absence of arginase (background) was considered as zero activity. Two reference compounds OAT-81 (ABH, no. 222638-65-5) and OAT-90 (2-amino-6-borono-2-(2-(3-(2,4-dichlorophenyl)propyloamino)ethyl) hexanoic acid, and two novel inhibitors OAT-1617 and OAT-1746 (the last three synthesized at OncoArendi Therapeutics) were tested. Normalized values were analyzed using GraphPad Prism 7.0 software and the IC50 values were determined.

[2] = test system: U87-MG human glioma cells; test: MTT viability assay, U87-MG; format: cell-based; conditions: 24 h
Protocol: (§1) Cell viability was assessed using MTT metabolism assay (U87 and BV2 cells) or MTS CellTiter 96® AQueous One Solution Cell Proliferation Assay (Promega) for the primary murine microglia cultures. Cells were cultured either in 96-well plates (U87 at density of 1×10^4) or 24-well plates (BV2 at density of 4×10^4 and primary microglia 8×10^4) with the indicated concentrations of the inhibitor or H2O (vehicle) for 24 h. MTT solution (Sigma Aldrich) was added to each well to a final concentration of 0.5 mg/mL. After 1 h of incubation at 37°C, water-insoluble dark blue formazan crystals were dissolved in DMSO. Optical densities (OD) were measured at 570 and 620 nm using a scanning multiwell spectrophotometer. The MTT assay was performed according to the manufacturer’s protocol. All measurements were carried out on three independent cell passages, in triplicates.

[3] = test system: BV2 microglial cells; test: MTT viability assay, BV2; format: cell-based, mouse; conditions: 24 h, concentrations up to 1000 µM
Protocol: as §1

[4] = test system: plasma cytokines; test: Plasma cytokine analysis (Milliplex/MAGPIX); format: in vivo, mouse; conditions: blood collected 2 h after last administration of OAT-1746
Protocol: Measurement of pro- and anti-inflammatory cytokines was performed in blood from control and treated animals. Blood was quickly collected to EDTA containing tubes before perfusion and centrifuged (10,000 × g) for 10 min at room temperature. The plasma was collected and stored at -80°C. The levels of cytokines were measured using the Milliplex Kit (Merk-Millipore, Germany) according to the protocol. Cytokine levels were determined using the MAGPIX Multiplexing Instrument (Luminex, TX, USA) with XPonent software and analyzed with Milliplex Analyst 5.1 software. Results were expressed as pg/mL for each cytokine.

[5] = test system: human and murine T cells; set-up: method as in PMID 31278254; conditions: cited from earlier work

CN(C)C[C@@H]1CC[C@@H](CCB(O)O)C[C@]1(N)C(=O)O [OAT-1746]
IC50 [1]: 0.028 µM
reduction of the cell viability in U87-MG glioma cells ([2]; 1 mM): 20%
viability of U87-MG cells (toxicity) ([2]; concentrations up to 1000 µM): a decrease in the viability of U87-MG cells was observed at the highest concentration
viability of BV2 microglial cells (toxicity) [3]: not toxic
plasma levels of CCL2 [4]: higher levels
plasma levels of CCL5 [4]: reduced
ARG1-inhibited proliferation of human and murine T cells [5]: reversed
